Measurements from patent publication US4452788A, “Substituted 8-phenylxanthines” (Warner-Lambert Company, priority 1982, dated 1984).
Structures can show the parent of a compound that is named as a salt. Where two headings read alike, the source gives them in different places.

How the values were obtained:
adenosine receptor [1] = test: adenosine receptor antagonism assayed by the procedure described in Proc. Natl. Acad. Sci. USA, 77, 5547 (1980); type: binding; settings: procedure of Proc. Natl. Acad. Sci. USA, 77, 5547 (1980)
From the text: The relevant teachings of this manuscript are incorporated herein by reference.

adenosine receptor [2] = settings: *Results reported in Proc. Natl. Acad. Sci. USA, 77, 5547(1980); cited from earlier work

| SMILES | IC50 (adenosine receptor [1]) [nM] | IC50 (adenosine receptor [2]) [nM] |
| --- | --- | --- |
| CCn1c(=O)c2[nH]c(-c3cccc(S(=O)(=O)NCCN(C)C)c3)nc2n(CC)c1=O [C2 H5, C2 H5, H, 3-SO2 NH(CH2)2 N(CH3)2, 3-(1,3-Diethyl-2,3,6,7-tetrahydro-2,6,-dioxo-1H-purin-8-yl)-N-[2-(dimethylamino)ethyl]benzenesulfonamide] | 550 | – |
| CCn1c(=O)c2[nH]c(-c3cccc(S(=O)(=O)O)c3)nc2n(CC)c1=O [C2 H5, C2 H5, H, 3-SO3 K, 3-(1,3-diethyl-2,3,6,7-tetrahydro-2,6-dioxo-1H-purin-8-yl)benzenesulfonic acid potassium salt] | 37000 | – |
| Cn1c(=O)c2[nH]c(-c3ccc(S(=O)(=O)O)cc3)nc2n(C)c1=O [CH3, CH3, H, 4-SO3 H, 4-(1,3-dimethyl-2,3,6,7-tetrahydro-2,6-dioxo-1H-purin-8-yl)benzenesulfonicacid] | – | 20000 |
| CCCn1c(=O)c2[nH]c(-c3ccc(S(=O)(=O)O)cc3)nc2n(CCC)c1=O [n-C3 H7, n-C3 H7, H, 4-SO3 K, 4-(1,3-dipropyl-2,3,6,7-tetrahydro-2,6-dioxo-1H-purin-8-yl)benzenesulfonic acid potassium salt] | 100 | – |
| Cn1c(=O)c2[nH]cnc2n(C)c1=O [theophylline] | – | 15000 |

Second part, led by results:

| IC50 (adenosine receptor [1]) [nM] | SMILES | IC50 (adenosine receptor [2]) [nM] |
| --- | --- | --- |
| 150 | CCn1c(=O)c2[nH]c(-c3ccc(S(=O)(=O)N4CCN(C)CC4)cc3)nc2n(CC)c1=O [C2 H5, C2 H5, H, 4-SO2 N(CH2 CH2)2 NCH3, 1-[[4-(1,3-Diethyl-2,3,6,7-tetrahydro-2,6,-dioxo-1H-purin-8-yl)phenyl]sulfonyl]-4-methyl-piperazine] | – |
| 300 | CCn1c(=O)c2[nH]c(-c3ccc(S(=O)(=O)N4CCOCC4)cc3)nc2n(CC)c1=O [C2 H5, C2 H5, H, 4-SO2 N(CH2 CH2)2 O, 4-[[4-(1,3-Diethyl-2,3,6,7-tetrahydro-2,6-dioxo-1H-purin-8-yl)phenyl]sulfonyl]morpholine] | – |
| 50 | CCn1c(=O)c2[nH]c(-c3ccc(S(N)(=O)=O)cc3)nc2n(CC)c1=O [C2 H5, C2 H5, H, 4-SO2 NH2, 4-(1,3-diethyl-2,3,6,7-tetrahydro-2,6-dioxo-1H-purin-8-yl)benzenesulfonamide] | – |
| 70 | CCn1c(=O)c2[nH]c(-c3ccc(S(=O)(=O)NCCCN(C)C)cc3)nc2n(CC)c1=O [C2 H5, C2 H5, H, 4-SO2 NH(CH2)3 N(CH3)2, 4-(1,3-Diethyl-2,3,6,7-tetrahydro-2,6-dioxo-1H-purin-8-yl)-N-[3-(dimethylamino)propyl]benzenesulfonamide] | – |
| 4900 | CCn1c(=O)c2[nH]c(-c3ccc(S(=O)(=O)O)cc3)nc2n(CC)c1=O [C2 H5, C2 H5, H, 4-SO3 K] | – |
| 10 | CCCn1c(=O)c2[nH]c(-c3ccc(S(=O)(=O)NCCN(C)C)cc3)nc2n(CCC)c1=O [N-[2-(Dimethylamino)ethyl]-4-(2,3,6,7-tetrahydro-2,6-dioxo-1,3-dipropyl-1H-purin-8-yl)benzenesulfonamide] | – |
